Measurements as given in patent publication US20170088520A1, “DEUBIQUITINASE INHIBITORS” (PharmAkea, Inc., priority 2014, published 2017).

Experiments:
Assay type in all cases: cell-based
[1] = target: T1, DUB activity in cells (NCI-H929, Z138, MM.1S, A375) (Homo sapiens, UniProt Q93008); test: HA-Ubiquitin-Vinylsulfone (HA-Ub-VS) cell labeling assay; details: compound tested at 5 μM; HA-Ub-VS labeling of USP9x in cells
T1 construct: endogenous in cells; host or cells: NCI-H929, Z138, MM.1S, A375
Experimental: Example B-1: HA-Ubiqutin-Vinylsulfone (HA-Ub-VS) Cell Labeling
Inhibitition of DUB activity is measured in cells (NCI-H929, Z138, MM.1S, A375) using a hemaglutinin-ubiquitin-vinylsulfone (HA-Ub-VS) labeling assay. Briefly, 1-2×10^6 cells are plated in 12-well plates in 1 ml complete growth media and 250 μl of test compound in 0.5% dimethylsulfoxide (or DMSO control) is added to each well. Plates are incubated at 37° C., 5% CO2 for 2-6 hours before cells are harvested into eppendorf tubes, washed once in PBS and resuspended in 100 μl cold lysis buffer (50 mM Tris pH 8, 150 mM NaCl, 0.5% NP-40, 2 mM phenylmethylsulfonyl fluoride and complete protease inhibitor tablet). Resupended cells are frozen on dry ice, then thawed and incubated on ice for 15 minutes. Tubes are centrifuged for 10 minutes at 14,000 rpm at 4° C. and the cleared supernatants transferred to clean tubes. […] The samples are incubated 15-60 min at 37° C. before the addition of SDS gel loading buffer. Proteins are separated by SDS-PAGE, transferred to nitrocellulose and the blot probed with anti-HA antibody and anti-β-actin antibodies. The HA and β-actin antibodies are detected using secondary antibodies coupled to IRdye 800 or IRdye 680 and visualized and quantitated using the LiCor Odyssey machine.
(§1) The following compounds were tested in the above assays at 5 μM: […]

[2] = test system: Mcl-1 expression in cells (NCI-H929, Z138, MM.1S, A-375); test: Analysis of Mcl-1 expression by Western blotting; details: compound tested at 5 μM; Western blot
Experimental: (§2) Example B-2: Analysis of Md-1 Expression and PARP Cleavage
(§3) The ability of test compounds to decrease expression of the tumor promoting protein, Mcl-1, and to induce the inactivation/cleavage of the PARP protein is evaluated in cells (NCI-H929, Z138, MM.1S, A-375) by Western blotting. Cells are plated and treated as described in the HA-Ub-VS cell labeling assay (see above). A portion of the cleared lysate (15-50 μl) is run on an SDS-polyacrylamide gel to separate proteins and then transferred to nitrocellulose. After transfer to nitrocellulose, the proteins are detected by probing the blot with anti-Mcl-1 and anti-PARP antibodies followed by secondary antibodies coupled to IRdye 800 and IRdye 680 and visualization and quantitation using a LiCor Odyssey machine. Activity of the test compound is identified as a significant decrease in Mcl-1 expression relative to the vehicle treated cells and to the appearance of a cleaved fragment of PARP relative to the vehicle-treated cells.
as §1

[3] = test system: PARP cleavage in cells (NCI-H929, Z138, MM.1S, A-375); test: Analysis of PARP cleavage by Western blotting; details: compound tested at 5 μM; Western blot
Experimental: as §2, §3, §1

T1 sequence (Q93008 whole entry): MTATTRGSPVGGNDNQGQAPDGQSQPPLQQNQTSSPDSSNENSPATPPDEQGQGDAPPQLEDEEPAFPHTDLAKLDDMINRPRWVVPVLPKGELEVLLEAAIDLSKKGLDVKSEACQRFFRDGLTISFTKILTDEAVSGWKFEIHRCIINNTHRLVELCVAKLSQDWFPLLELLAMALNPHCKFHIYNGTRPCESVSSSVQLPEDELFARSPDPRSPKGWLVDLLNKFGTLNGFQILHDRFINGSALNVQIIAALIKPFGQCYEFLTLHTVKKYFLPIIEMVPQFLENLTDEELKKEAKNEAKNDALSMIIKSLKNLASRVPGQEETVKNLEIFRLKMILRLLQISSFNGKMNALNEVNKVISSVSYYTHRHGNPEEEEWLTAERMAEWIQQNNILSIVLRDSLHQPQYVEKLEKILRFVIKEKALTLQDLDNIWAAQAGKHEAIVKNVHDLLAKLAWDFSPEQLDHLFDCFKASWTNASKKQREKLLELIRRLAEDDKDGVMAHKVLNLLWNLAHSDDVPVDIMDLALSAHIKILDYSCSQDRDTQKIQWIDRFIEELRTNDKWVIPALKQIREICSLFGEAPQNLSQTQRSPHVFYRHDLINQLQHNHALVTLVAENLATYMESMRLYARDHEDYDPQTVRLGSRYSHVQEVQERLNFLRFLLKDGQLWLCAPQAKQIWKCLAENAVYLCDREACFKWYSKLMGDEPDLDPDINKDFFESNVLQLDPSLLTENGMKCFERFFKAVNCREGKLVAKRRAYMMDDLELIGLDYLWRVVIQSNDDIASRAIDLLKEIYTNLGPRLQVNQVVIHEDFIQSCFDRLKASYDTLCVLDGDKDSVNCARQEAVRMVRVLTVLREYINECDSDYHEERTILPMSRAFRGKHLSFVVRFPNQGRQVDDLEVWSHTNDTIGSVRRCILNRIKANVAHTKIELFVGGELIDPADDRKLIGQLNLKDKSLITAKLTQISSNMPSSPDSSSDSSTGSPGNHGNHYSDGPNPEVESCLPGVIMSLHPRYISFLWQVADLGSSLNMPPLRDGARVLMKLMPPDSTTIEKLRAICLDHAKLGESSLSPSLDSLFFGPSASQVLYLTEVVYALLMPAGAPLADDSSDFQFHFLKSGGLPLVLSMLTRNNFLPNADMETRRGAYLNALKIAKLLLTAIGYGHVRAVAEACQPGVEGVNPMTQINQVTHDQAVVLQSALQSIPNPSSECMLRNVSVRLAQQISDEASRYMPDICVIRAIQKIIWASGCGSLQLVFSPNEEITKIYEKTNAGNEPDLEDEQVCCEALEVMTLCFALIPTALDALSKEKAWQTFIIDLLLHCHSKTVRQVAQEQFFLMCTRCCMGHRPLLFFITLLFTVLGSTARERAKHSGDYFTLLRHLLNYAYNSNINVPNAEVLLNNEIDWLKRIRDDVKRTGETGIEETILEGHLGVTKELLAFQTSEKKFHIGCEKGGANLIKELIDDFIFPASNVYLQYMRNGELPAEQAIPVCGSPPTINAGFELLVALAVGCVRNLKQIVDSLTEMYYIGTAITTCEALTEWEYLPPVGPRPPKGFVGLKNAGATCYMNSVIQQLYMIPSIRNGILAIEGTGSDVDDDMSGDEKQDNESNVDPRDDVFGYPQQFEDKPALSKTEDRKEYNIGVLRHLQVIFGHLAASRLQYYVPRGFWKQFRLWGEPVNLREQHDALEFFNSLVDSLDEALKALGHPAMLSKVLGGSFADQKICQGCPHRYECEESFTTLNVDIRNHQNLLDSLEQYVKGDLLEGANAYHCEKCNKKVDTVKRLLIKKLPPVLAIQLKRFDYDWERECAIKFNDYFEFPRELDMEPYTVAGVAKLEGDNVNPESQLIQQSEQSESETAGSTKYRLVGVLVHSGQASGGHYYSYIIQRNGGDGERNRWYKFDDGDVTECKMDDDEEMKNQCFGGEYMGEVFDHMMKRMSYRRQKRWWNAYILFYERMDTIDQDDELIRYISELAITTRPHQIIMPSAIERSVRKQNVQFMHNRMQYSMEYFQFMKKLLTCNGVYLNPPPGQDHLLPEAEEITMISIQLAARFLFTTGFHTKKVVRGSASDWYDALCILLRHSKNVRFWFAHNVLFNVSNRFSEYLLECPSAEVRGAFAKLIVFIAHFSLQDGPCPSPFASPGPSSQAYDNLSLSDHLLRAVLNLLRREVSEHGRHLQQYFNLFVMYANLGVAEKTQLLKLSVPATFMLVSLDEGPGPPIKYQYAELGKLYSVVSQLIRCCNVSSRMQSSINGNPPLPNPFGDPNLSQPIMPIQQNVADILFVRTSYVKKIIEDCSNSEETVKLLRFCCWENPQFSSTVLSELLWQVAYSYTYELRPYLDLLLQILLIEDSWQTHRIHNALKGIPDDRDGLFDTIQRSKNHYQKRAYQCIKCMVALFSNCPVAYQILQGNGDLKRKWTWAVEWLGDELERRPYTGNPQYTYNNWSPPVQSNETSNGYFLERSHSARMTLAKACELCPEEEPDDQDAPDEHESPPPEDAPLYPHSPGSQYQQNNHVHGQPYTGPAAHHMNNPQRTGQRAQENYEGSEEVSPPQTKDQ

Structure (SMILES) | inhibition at 5 µM [1] [%] | inhibition at 5 µM [2] [%] | PARP cleavage % Inhibition [3]
N#C/C(=C\c1ncc(Br)cc1Br)C(=O)NC1(c2ccc(C(F)(F)F)cc2)CCCC1 [Compound 19, (E)-2-Cyano-3-(3,5-dibromopyridin-2-yl)-N-(1-(4-(trifluoromethyl)phenyl)cyclopentyl) acrylamide] | ≥ 75 | ≥ 75 | A (A is ≧75% inhibition)
COC(=O)c1cccc(-c2cccc(/C=C(\C#N)C(=O)NC3(c4ccccc4)CCCC3)n2)c1 [Compound 34] | 50 to 75 | 25 to 50 | A (A is ≧75% inhibition)
Cn1cc(-c2ccc(C3(NC(=O)/C(C#N)=C/c4ncc(Br)cc4Br)CCCC3)cc2)cn1 [Compound 77, (E)-2-cyano-3-(3,5-dibromopyridin-2-yl)-N-(1-(4-(1-methyl-1H-pyrazol-4-yl)phenyl)cyclopentyl)acrylamide] | 50 to 75 | 50 to 75 | B (B is 50% to 75% inhibition)
N#C/C(=C\c1ccc(O)cc1)C(=O)NC1(c2ccccc2)CCCC1 [Compound 13, (E)-3-(4-Hydroxyphenyl)-2-cyano-N-(1-phenylcyclopentyl)acrylamide] | < 25 | < 25 | D (D is <25% inhibition)
CCOC(=O)c1ccc(-c2ccc(C3(NC(=O)/C(C#N)=C/c4ncc(Br)cc4Br)CCCC3)cc2)cc1 [Compound 32, (E)-ethyl 4′-(1-(2-cyano-3-(3,5-dibromopyridin-2-yl)acrylamido)cyclopentyl)-[1,1′-biphenyl]-4-carboxylate] | < 25 | < 25 | D (D is <25% inhibition)
COc1ccc(C2(NC(=O)/C(C#N)=C/c3cccc(Br)n3)CCCC2)cc1 [Compound 16, (E)-3-(6-Bromopyridin-2-yl)-2-cyano-N-(1-(4-methoxyphenyl)cyclopentyl)acrylamide] | 50 to 75 | 50 to 75 | A (A is ≧75% inhibition)
N#C/C(=C\c1cccc(-c2ccc3[nH]ncc3c2)n1)C(=O)NC1(c2ccccc2)CCCC1 [Compound 70, (E)-3-(6-(1H-indazol-5-yl)pyridin-2-yl)-2-cyano-N-(1-phenylcyclopentyl) acrylamide] | 50 to 75 | ≥ 75 | A (A is ≧75% inhibition)
N#C/C(=C\c1cccc(Br)n1)C(=O)NC1(c2ccccc2)CCCCC1 [Compound 17, (E)-3-(6-Bromopyridin-2-yl)-2-cyano-N-(1-phenylcyclohexyl)acrylamide] | 25 to 50 | 50 to 75 | A (A is ≧75% inhibition)
N#C/C(=C\c1cccc(Br)n1)C(=O)NC1(c2ccc(COC(=O)CCCCCN3C(=O)C=CC3=O)cc2)CCCC1 [Compound 85, (E)-4-(1-(3-(6-bromopyridin-2-yl)-2-cyanoacrylamido)cyclopentyl)benzyl 6-(2,5-dioxo-2,5-dihydro-1H-pyrrol-1-yl)hexanoate] | 25 to 50 | < 25 | C (C is 25% to 50% inhibition)
CCOC(=O)CN1CCc2ccc(-c3cccc(/C=C(\C#N)C(=O)NC4(c5ccccc5)CCCC4)n3)cc2C1 [Compound 97, (E)-ethyl 2-(7-(6-(2-cyano-3-oxo-3-((1-phenylcyclopentyl)amino)prop-1-en-1-yl)pyridin-2-yl)-3,4-dihydroisoquinolin-2(1H)-yl)acetate] | 25 to 50 | < 25 | B (B is 50% to 75% inhibition)
N#C/C(=C\c1cccc(Br)n1)C(=O)NC1(c2ccccc2)CCC1 [Compound 3, (E)-3-(6-Bromopyridin-2-yl)-2-cyano-N-(1-phenylcyclobutyl)acrylamide] | < 25 | < 25 | B (B is 50% to 75% inhibition)
